The values below come from patent US20180140637A1, “EPIDERMAL NEURAL CREST STEM CELLS AS A SOURCE OF SCHWANN CELLS” (priority 2015, published 2018).

Each structure is given as a SMILES string.

Data set [1] has as its target SAPK2/p38 (Homo sapiens, UniProt Q16539). To be noted: inhibitor of CK1 and ALK5; cited from earlier work.
The test system of data set [2] is hEPI-NCSC. In words: Differentiation of hEPI-NCSC into Schwann cells. Type of data set: cell-based, human. How it is done: hEPI-NCSC were seeded at 2,500-5,000 cells per CELLstart™-coated 35-mm culture plate and cultured at 36.8° C., 5% CO2 and 5% O2. At differentiation Day minus 3 (D-3), cells were placed in XP medium, which is NeuroCult XF medium (Stem Cell Technologies, Grenoble, France Cat# 05761) supplemented with 10 ng/ml rhFGF2 (R&D Systems, Abingdon, UK Cat# 233-FB), 20 ng/ml rhEGF (R&D Systems Cat# 236-EG), 1× ITS+3 (Sigma, Poole, UK Cat# 1-2771), 1% (v/v) FBS (HyClone, Thermo Fisher, Cramlington, UK Cat# SH30070.02), 1× GlutaMAX (Invitrogen, Cat# 35050-038), 1× Penicillin/Streptomycin (Sigma Cat# P0781) and 2.5 μg/ml Amphotericin B (Sigma Cat# A2942).
The cells in XP medium were treated with 500 ng/ml recombinant human sonic hedgehog (C2411) N-terminus (rhSHH) and 500 nM CHIR99021 for two days. At differentiation Day −1, the cells were subcultured. Cells were detached with TrypLE Select, centrifuged, and plated in XP medium at a density of 30,000 cells per 35 mm culture plate and 1,000 cells per poly-D-lysine and laminin-coated 13-mm diameter glass coverslip. The next day (differentiation Day 0), cells were cultured in Alpha-modified MEM in the presence of 10% FBS and 1 mM β-mercaptoethanol (βME) for 24 hours, which was followed by treatment with 35 ng/ml all-trans-retinoic acid according to the method of Dezawa et al (2001). At differentiation Day 3, the FBS concentration was reduced to 1%. Starting at differentiation Day 0, 10 μM SB431542 was added to the culture medium. Retinoic acid and SB431542 remained in the culture medium throughout the culture period. At Day 3, 10 ng/ml rhFGF2, 5 ng/ml recombinant human PDGF-BB (rhPDGF-BB), 5 μM forskolin, 200 ng/ml recombinant human neuregulin-1 (rhNRG) were added to the culture medium. The culture medium was exchanged every 48 hours.
At Day 0 of differentiation, cells were treated for 24 hours with β-mercaptoethanol, and all-trans-retinoic acid was added on differentiation Day 1 according to the method of Dezawa et al (2001). Neither the three-day treatment with retinoic acid, nor five days of exposure to retinoic acid were sufficient for differentiating hEPI-NCSC into Schwann cells as judged by cell morphology and marker expression. […] At Day 0, SB431542, an inhibitor of transforming growth factor-beta 1 (TGFβ1) activin receptor-like kinases (ALKs), was also added to the culture medium (FIG. 1). […] On Day 3, FGF2, PDGF-BB, forskolin, and neuregulin-1 were added.

Data set [3] deals with endogenous Schwann cells (non-neuronal cells) of dorsal root ganglia (DRG) explants. As to the kind of experiment: Removal of non-neuronal cells from DRG explants. To be noted: for removal of endogenous Schwann cells from DRG explants: rodent DRG explants, camptothecin 20 μM three times for 48 hours each, data not shown. Type of data set: cell-based, rodent. Here is the method: (§1) Mice ([C57BL/6-TgN(ACTbEGFP)]Osb]; ‘green mice’) (Okabe et al, 1997) and rats were handled in accordance to protocols approved by the Animal Care Committee of Newcastle University (project licence 60/3876). Whole mount DRG explants from E15.5 Wistar rat embryos were dissected as described by Päiväläinen et al. (2008) and Liu et al. (2011). Dissociated DRG cultures from adult ‘green’ mice were prepared according to Malin et al (2007) and Johnson et al (2001). To remove non-neuronal cells, DRG explants were treated with camptothecin (20 μM) three times for 48 hours each, on Days 2-5, 6-8, and 13-15.
(§2) Co-cultures of hEPI-NCSC derived Schwann cells and rodent dorsal root ganglia (DRG) explants were prepared by first treating the DRG explants with camptothecin to eliminate non-neuronal cells. […] Neuronal toxicity of camptothecin has been documented previously (Bhanu and Kondapi, 2010).
Anti-human nuclear antibody immunofluorescence confirmed that all P-zero immunoreactive Schwann cells were of human origin (FIG. 7A-7C; pale blue fluorescence in original).

Data set [4] deals with large diameter sensory neurons. In words: Neuronal toxicity in DRG explants. Type of data set: cell-based, rodent. Here is the method:
as §1, §2

Sequence of SAPK2/p38 (Q16539 whole entry): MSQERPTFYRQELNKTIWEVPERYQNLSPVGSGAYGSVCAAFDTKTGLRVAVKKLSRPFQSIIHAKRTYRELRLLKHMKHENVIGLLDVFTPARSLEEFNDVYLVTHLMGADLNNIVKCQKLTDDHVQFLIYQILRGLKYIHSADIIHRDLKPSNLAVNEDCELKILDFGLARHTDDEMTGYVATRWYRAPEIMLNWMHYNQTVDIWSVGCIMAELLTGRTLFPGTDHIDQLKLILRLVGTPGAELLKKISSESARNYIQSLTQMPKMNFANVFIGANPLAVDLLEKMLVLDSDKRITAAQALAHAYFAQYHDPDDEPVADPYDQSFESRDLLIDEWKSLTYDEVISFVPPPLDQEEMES

Take `NC(=O)c1ccc(-c2nc(-c3ccc4c(c3)OCCO4)c(-c3ccccn3)[nH]2)cc1` [D 4476, 4-[4-(2,3-Dihydro-1,4-benzodioxin-6-yl)-5-(2-pyridinyl)-1H-imidazol-2-yl]benzamide]: in data set [1], the “selectivity over SAPK2/p38” value was “greater than 20 fold”.
In the case of `CC1=C(/C=C/C(C)=C/C=C/C(C)=C/C(=O)O)C(C)(C)CCC1` [Retinoic acid, all-trans-retinoic acid], the “deleterious effects to the cells” value in data set [2] (35 ng/ml in the differentiation medium throughout the culture period) is recorded as “without any detectable deleterious effects to the cells”. Besides, the “Schwann cell differentiation, judged by cell morphology and marker expression” value in data set [2] (retinoic acid treatment for 3 days) and in data set [2] (retinoic acid treatment for 5 days (data not shown)) was “not conducive to highly efficient Schwann cell differentiation” in each case.
As to `NC(=O)c1ccc(-c2nc(-c3ccc4c(c3)OCO4)c(-c3ccccn3)[nH]2)cc1` [SB 431542, 4-[4-(1,3-benzodioxol-5-yl)-5-(2-pyridinyl)-1H-imidazol-2-yl]benzamide], in data set [2] (10 μM throughout the differentiation period), the “effect on differentiation into Schwann cells” value is “facilitated differentiation”.
Turning to `CC[C@@]1(O)C(=O)OCc2c1cc1n(c2=O)Cc2cc3ccccc3nc2-1` [camptothecin], the “removal of endogenous Schwann cells from DRG explants” value in data set [3] was “efficiently removed endogenous Schwann cells”. Besides, in data set [3] (whole DRG explants from E15.5 rat embryos, camptothecin 20 μM), the “non-neuronal cells in treated DRG explants” value is “clear of non-neuronal cells”. In data set [4], the “toxicity to sensory neurons” value is recorded as “selectively toxic to large diameter sensory neurons”.
Consider `Nc1ccn([C@@H]2O[C@H](CO)[C@@H](O)[C@@H]2O)c(=O)n1` [cytosine arabinoside], for which, in data set [3], the “removal of endogenous Schwann cells from DRG explants” value was “did not”.
